Source: US12655116B2, “Substituted isophthalic acid diamides” (Bayer Aktiengesellschaft, priority 2020, dated 2026)

Experiments:
MATIN [1] = assay: Pre-emergence herbicidal action against MATIN; type: in vivo, Matricaria inodora
Procedure, shortened: (§1)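 Pre-emergence soil-surface spray of formulated compound (WP or EC; 600 to 800 l/ha; 0.2% wetting agent) over seeds sown in sandy loam. After 3 weeks under greenhouse conditions, damage is estimated visually in percent against untreated plants.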

VIOTR [2] = assay: Pre-emergence herbicidal action against VIOTR; type: in vivo, Viola tricolor
Procedure, shortened: as §1

AVEFA = assay: Pre-emergence herbicidal action against AVEFA; type: in vivo, Avena fatua; conditions: 80 g/ha, pre-emergence
Procedure, shortened: as §1

AMARE [3] = assay: Post-emergence herbicidal action against AMARE; type: in vivo, Amaranthus retroflexus; conditions: Amaranthus retroflexus, 504 h, 20 g/ha, visual assessment about 3 weeks after treatment, 100% = plants have died, 0% = like control plants
Procedure, shortened: (§2)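 Greenhouse plants in sandy loam were sprayed at the one-leaf stage, 2 to 3 weeks after sowing, with WP or EC formulations as aqueous suspension or emulsion (600 to 800 l/ha water, 0.2% wetting agent). Visual damage was scored about 3 weeks later versus untreated controls, 0% = like control, 100% = dead.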

ALOMY = assay: Pre-emergence herbicidal action against ALOMY; type: in vivo, Alopecurus myosuroides; conditions: 80 g/ha, pre-emergence, scored visually after 3 weeks vs untreated controls (100% = plants have died, 0% = like control plants)
Procedure, shortened: as §1

MATIN [4] = assay: Post-emergence herbicidal action against MATIN; type: in vivo, Matricaria inodora
Procedure, shortened: as §2

ABUTH [5] = assay: Post-emergence herbicidal action against ABUTH; type: in vivo, Abutilon theophrasti; conditions: visual assessment about 3 weeks after treatment vs untreated controls
Procedure, shortened: as §2

VERPE [6] = assay: Post-emergence herbicidal action against VERPE; type: in vivo, Veronica persica
Procedure, shortened: as §2

SETVI [7] = assay: Post-emergence herbicidal action against SETVI; type: in vivo, Setaria viridis
Procedure, shortened: as §2

POLCO = assay: Pre-emergence herbicidal action against POLCO; type: in vivo, Polygonum convolvulus; conditions: dosage 80 g/ha
Procedure, shortened: as §1

PHBPU [8] = assay: Post-emergence herbicidal action against PHBPU; type: in vivo, Pharbitis purpurea; conditions: dosage 20 g/ha
Procedure, shortened: as §2

ECHCG [9] = assay: Post-emergence herbicidal action against ECHCG; type: in vivo, Echinochloa crus-galli
Procedure, shortened: as §2

DIGSA [10] = assay: Post-emergence herbicidal action against DIGSA; type: in vivo, Digitaria sanguinalis; conditions: Digitaria sanguinalis, 504 h
Procedure, shortened: as §2

VERPE [11] = assay: Pre-emergence herbicidal action against VERPE; type: in vivo, Veronica persica
Procedure, shortened: as §1

ABUTH [12] = assay: Pre-emergence herbicidal action against ABUTH; type: in vivo, Abutilon theophrasti
Procedure, shortened: as §1

ECHCG [13] = assay: Pre-emergence herbicidal action against ECHCG; type: in vivo, Echinochloa crus-galli; conditions: 80 g/ha
Procedure, shortened: as §1

VIOTR [14] = assay: Post-emergence herbicidal action against VIOTR; type: in vivo, Viola tricolor
Procedure, shortened: as §2

SETVI [15] = assay: Pre-emergence herbicidal action against SETVI; type: in vivo, Setaria viridis
Procedure, shortened: as §1

PHBPU [16] = assay: Pre-emergence herbicidal action against PHBPU; type: in vivo, Pharbitis purpurea
Procedure, shortened: as §1

AMARE [17] = assay: Pre-emergence herbicidal action against AMARE; type: in vivo, Amaranthus retroflexus
Procedure, shortened: as §1

DIGSA [18] = assay: Pre-emergence herbicidal action against DIGSA; type: in vivo, Digitaria sanguinalis
Procedure, shortened: as §1

[19] = Tripleurospermum inodorum, 504 h, dosage 20 g/ha
[20] = Setaria viridis, 504 h, dosage 20 g/ha
[21] = 80 g/ha, scored visually after 3 weeks vs untreated controls (100% = plants have died, 0% = like control plants)

CNC(=O)c1c(C(F)(F)F)ccc(C(=O)Nc2nnnn2C)c1OC [Example 1-56]
pest or weed control at 20 g/ha (MATIN [1]; [19]): 90% | pest or weed control at 80 g/ha (MATIN [1]; Tripleurospermum inodorum, 504 h, dosage 80 g/ha): 90% | pest or weed control at 20 g/ha (VIOTR [2]; Viola tricolor, 504 h, dosage 20 g/ha): 100% | pest or weed control at 80 g/ha (VIOTR [2]; Viola tricolor, 504 h, dosage 80 g/ha): 100% | pest or weed control at 80 g/ha (AVEFA; Avena fatua, 504 h): 80% | pest or weed control at 20 g/ha (AMARE [3]): 100% | pest or weed control at 80 g/ha (ALOMY; Alopecurus myosuroides, 504 h): 90% | pest or weed control at 20 g/ha (MATIN [4]; [19]): 90% | pest or weed control at 5 g/ha (ABUTH [5]; Abutilon theophrasti, 504 h, dosage 5 g/ha): 80% | pest or weed control at 20 g/ha (ABUTH [5]; Abutilon theophrasti, 504 h, dosage 20 g/ha): 100% | pest or weed control at 20 g/ha (VERPE [6]; Veronica persica, 504 h, 20 g/ha): 90% | pest or weed control at 5 g/ha (SETVI [7]; Setaria viridis, 504 h, dosage 5 g/ha): 100% | pest or weed control at 20 g/ha (SETVI [7]; [20]): 100% | pest or weed control at 80 g/ha (POLCO; Fallopia convolvulus, 504 h): 90% | pest or weed control at 20 g/ha (PHBPU [8]; Ipomoea purpurea, 504 h): 80% | pest or weed control at 5 g/ha (ECHCG [9]; Echinochloa crus-galli, 504 h, dosage 5 g/ha): 80% | pest or weed control at 20 g/ha (ECHCG [9]; Echinochloa crus-galli, 504 h, dosage 20 g/ha): 90% | pest or weed control at 5 g/ha (DIGSA [10]; 5 g/ha): 90% | pest or weed control at 20 g/ha (DIGSA [10]; 20 g/ha): 100% | pest or weed control at 80 g/ha (VERPE [11]; Veronica persica, 504 h, dosage 80 g/ha): 90% | pest or weed control at 80 g/ha (ABUTH [12]; Abutilon theophrasti, 504 h, 80 g/ha, scored visually after 3 weeks vs untreated controls (100% = plants have died, 0% = like control plants)): 90% | pest or weed control at 80 g/ha (ECHCG [13]; Echinochloa crus-galli, 504 h): 90% | pest or weed control at 5 g/ha (VIOTR [14]; Viola tricolor, 504 h, 5 g/ha): 100% | pest or weed control at 20 g/ha (VIOTR [14]; Viola tricolor, 504 h, 20 g/ha): 100% | pest or weed control at 20 g/ha (SETVI [15]; [20]): 90% | pest or weed control at 80 g/ha (SETVI [15]; Setaria viridis, 504 h, dosage 80 g/ha): 100% | pest or weed control at 20 g/ha (PHBPU [16]; Ipomoea purpurea, 504 h, dosage 20 g/ha): 80% | pest or weed control at 80 g/ha (PHBPU [16]; Ipomoea purpurea, 504 h, dosage 80 g/ha): 80% | pest or weed control at 20 g/ha (AMARE [17]; Amaranthus retroflexus, 504 h, 20 g/ha, scored visually after 3 weeks vs untreated controls, 100% = plants have died, 0% = like control plants): 100% | pest or weed control at 80 g/ha (AMARE [17]; Amaranthus retroflexus, 504 h, 80 g/ha, scored visually after 3 weeks vs untreated controls, 100% = plants have died, 0% = like control plants): 100% | pest or weed control at 80 g/ha (DIGSA [18]; Digitaria sanguinalis, 504 h, dosage 80 g/ha): 80%

CCNC(=O)c1c(C(F)F)ccc(C(=O)Nc2nnnn2CC)c1OC [Example 2-73]
Pre-emergence action against MATIN in % (MATIN [1]; dosage 20 g/ha): 100% | Pre-emergence action against MATIN in % (MATIN [1]; dosage 80 g/ha): 100% | Pre-emergence action against VIOTR in % (VIOTR [2]; dosage 20 g/ha): 90% | Pre-emergence action against VIOTR in % (VIOTR [2]; dosage 80 g/ha): 100% | Pre-emergence action against AVEFA in % (AVEFA): 80% | Pre-emergence action against ALOMY (herbicidal activity) (ALOMY): 100% | Post-emergence action against MATIN in % (MATIN [4]; dosage 5 g/ha): 80% | Post-emergence action against MATIN in % (MATIN [4]; dosage 20 g/ha): 80% | Post-emergence action against ABUTH in % (ABUTH [5]; dosage 5 g/ha): 80% | Post-emergence action against ABUTH in % (ABUTH [5]; dosage 20 g/ha): 80% | Post-emergence action against VERPE in % (VERPE [6]; 5 g/ha): 80% | Post-emergence action against VERPE in % (VERPE [6]; 20 g/ha): 90% | Post-emergence action against SETVI in % (SETVI [7]; dosage 20 g/ha): 100% | Pre-emergence action against POLCO in % (POLCO): 80% | Post-emergence action against PHBPU in % (PHBPU [8]): 80% | Post-emergence action against ECHCG in % (ECHCG [9]; dosage 5 g/ha): 80% | Post-emergence action against ECHCG in % (ECHCG [9]; dosage 20 g/ha): 80% | Pre-emergence action against VERPE in % (VERPE [11]; dosage 20 g/ha): 90% | Pre-emergence action against VERPE in % (VERPE [11]; dosage 80 g/ha): 90% | Pre-emergence action against ABUTH (herbicidal activity) (ABUTH [12]; [21]): 100% | Pre-emergence action against ABUTH (herbicidal activity in percent) (ABUTH [12]; dosage 20 g/ha, scored visually after 3 weeks vs untreated controls, 100% = plants have died, 0% = like control plants): 100% | Pre-emergence action against ECHCG in % (ECHCG [13]): 100% | Post-emergence action against VIOTR in % (VIOTR [14]; 20 g/ha): 100% | Pre-emergence action against SETVI in % (SETVI [15]; dosage 80 g/ha): 100% | Pre-emergence action against PHBPU in % (PHBPU [16]; dosage 80 g/ha): 80% | Pre-emergence action against AMARE in % (AMARE [17]; 20 g/ha, scored visually after 3 weeks vs untreated controls, 100% = plants have died, 0% = like control plants): 100% | Pre-emergence action against AMARE in % (AMARE [17]; [21]): 100% | Pre-emergence action against DIGSA in % (DIGSA [18]; dosage 20 g/ha): 90% | Pre-emergence action against DIGSA in % (DIGSA [18]; dosage 80 g/ha): 100%
